We go through 23 compounds from publication PMC10402865, “Fragment-based design, synthesis and biological evaluation of theophylline derivatives as ATAD2 inhibitors in BT-549 cells” (Journal of Enzyme Inhibition and Medicinal Chemistry, 2023).

Series [1] concerns BT-549 cells. The experiment in a line: Cell viability (MTT) assay, anti-proliferative activity. The following applies: Homo sapiens, MTT, 24 h, mean ± SD. The class given is cell-based. The protocol:
BT-549 cells were seeded at a density of 5 × 10^4 cells/ml in a 96-well plate. Following a 24-h incubation period, the cells were exposed to various concentrations of different compounds for the specified durations. Cell viability was evaluated using an MTT assay.

Series [2] concerns the target T1, ATAD2 recombinant bromodomain protein (Homo sapiens, UniProt Q6PL18).
T1 sequence (Q6PL18 980-1092 limits assumed): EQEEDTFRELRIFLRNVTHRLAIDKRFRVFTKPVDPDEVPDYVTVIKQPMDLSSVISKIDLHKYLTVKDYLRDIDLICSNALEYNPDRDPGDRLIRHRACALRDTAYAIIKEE
Briefly: ATAD2 enzymatic assay by TR-FRET technology. The class given is binding. Particulars: for ATAD2 inhibitory activity, in words / IC50: TR-FRET; for IC50: mean ± SD, read-out: Kinase inhibitory activity (IC50, μM) ATAD2. On the procedure:
The assay was performed by TR-FRET technology using recombinant bromodomain and BET Ligand[8]. The compounds were diluted with indicated folds in 5% DMSO in reaction buffer and 2 µl of the dilution was added to a 20 µl reaction so that the final concentration of DMSO is 0.5% in all of the reactions. The 20 µl reaction mixture consists of the ATAD2 recombinant bromodomain protein, the indicated amount of the inhibitor, ligand, and the reactive dyes. The reaction mixture was incubated for 3 h before reading the TR-FRET signal. Fluorescence signals for both the donor and acceptor dyes were measured using a Tecan Infinite M1000 plate reader. Binding experiments were performed in duplicate at each concentration and the data were analysed using GraphPad Prism.

For `Cn1c(=O)c2ncn(CC(=O)Nc3cccc(C(=O)N4CCSCC4)c3)c2n(C)c1=O` [Compound 15a, 2–(1,3-dimethyl-2,6-dioxo-1,2,3,6-tetrahydro-9H-purin-9-yl)-N-(3-(thiomorpholine-4-carbonyl)phenyl)acetamide], the melting point (in general, the temperature, or range, at which the solid turns liquid) fell in the range of 246 to 248 °C. In series [1], the half-inhibitory concentration (IC50) (commonly the midpoint of a concentration-inhibition curve) was over 30 µM. Also, in series [2], the “ATAD2 inhibitory activity, in words” value is listed as “without ATAD2 inhibition activity” and the 50% inhibitory concentration (IC50) is over 25 µM.

Consider `Cc1ccc(C(=O)N2CCSCC2)cc1NC(=O)Cn1cnc2c(=O)n(C)c(=O)n(C)c21` [Compound 15b, 2–(1,3-dimethyl-2,6-dioxo-1,2,3,6-tetrahydro-9H-purin-9-yl)-N-(2-methyl-5-(thiomorpholine-4-carbonyl)phenyl)acetamide], for which the melting point lay in the range of 251 to 252 °C. The half-maximal inhibitory concentration (IC50) in series [1] is over 30 µM. Moreover, in series [2], the “ATAD2 inhibitory activity, in words” value was “weak inhibitory activities against ATAD2” and the IC50 was determined as 19.3 ± 2.35 µM.

Compound `COc1ccc(C(=O)N2CCSCC2)cc1NC(=O)Cn1cnc2c(=O)n(C)c(=O)n(C)c21` [Compound 15c, 2–(1,3-dimethyl-2,6-dioxo-1,2,3,6-tetrahydro-9H-purin-9-yl)-N-(2-methoxy-5-(thiomorpholine-4-carbonyl)phenyl)acetamide] returned a melting point of 257 to 258 °C. This compound also registered an IC50 in series [1] of over 30 µM. In series [2], the “ATAD2 inhibitory activity, in words” value is on record as “weak inhibitory activities against ATAD2” and the IC50 turned out to be 14.8 ± 1.78 µM.

Take `Cn1c(=O)c2ncn(CC(=O)Nc3cccc(C(=O)N4CCS(=O)(=O)CC4)c3)c2n(C)c1=O` [Compound 15d, 2–(1,3-dimethyl-2,6-dioxo-1,2,3,6-tetrahydro-9H-purin-9-yl)-N-(3–(1,1-dioxidothiomorpholine-4-carbonyl)phenyl)acetamide]: the melting point lay in the range of 224 to 226 °C. Besides, in series [1], the IC50 is over 30 µM. Besides, the IC50 in series [2] is over 25 µM.

Take `Cc1ccc(C(=O)N2CCS(=O)(=O)CC2)cc1NC(=O)Cn1cnc2c(=O)n(C)c(=O)n(C)c21` [Compound 15e, 2–(1,3-dimethyl-2,6-dioxo-1,2,3,6-tetrahydro-9H-purin-9-yl)-N-(5–(1,1-dioxidothiomorpholine-4-carbonyl)-2-methylphenyl)acetamide]: the melting point was in the range of 231 to 233 °C. Also, the half-maximal inhibitory concentration (IC50) in series [1] is over 30 µM. For the same compound, the IC50 in series [2] was over 25 µM.

As to `COc1ccc(C(=O)N2CCS(=O)(=O)CC2)cc1NC(=O)Cn1cnc2c(=O)n(C)c(=O)n(C)c21` [Compound 15f, 2–(1,3-dimethyl-2,6-dioxo-1,2,3,6-tetrahydro-9H-purin-9-yl)-N-(5–(1,1-dioxidothiomorpholine-4-carbonyl)-2-methoxyphenyl)acetamide], the concentration for half-maximal inhibition (IC50) is over 30 µM in series [1] and over 25 µM in series [2].

Take `Cn1c(=O)c2ncn(CC(=O)Nc3cccc(C(=O)N4CCOCC4)c3)c2n(C)c1=O` [Compound 15g, 2–(1,3-dimethyl-2,6-dioxo-1,2,3,6-tetrahydro-9H-purin-9-yl)-N-(3-(morpholine-4-carbonyl)phenyl)acetamide]: the melting point lay within 266 to 268 °C. This compound also showed an IC50 in series [1] of over 30 µM. Also, in series [2], the “ATAD2 inhibitory activity, in words” value is “weak inhibition potency” and the IC50 turned out to be 21.2 ± 3.17 µM.

Turning to `Cc1ccc(C(=O)N2CCOCC2)cc1NC(=O)Cn1cnc2c(=O)n(C)c(=O)n(C)c21` [Compound 15h, 2–(1,3-dimethyl-2,6-dioxo-1,2,3,6-tetrahydro-9H-purin-9-yl)-N-(2-methyl-5-(morpholine-4-carbonyl)phenyl)acetamide], the melting point lay in the range of 270 to 271 °C. In series [1], this compound registered an IC50 of over 30 µM. In addition, the IC50 in series [2] is over 25 µM.

For `COc1ccc(C(=O)N2CCOCC2)cc1NC(=O)Cn1cnc2c(=O)n(C)c(=O)n(C)c21` [Compound 15i, 2–(1,3-dimethyl-2,6-dioxo-1,2,3,6-tetrahydro-9H-purin-9-yl)-N-(2-methoxy-5-(morpholine-4-carbonyl)phenyl)acetamide], the melting point was 278 to 279 °C. The concentration for half-maximal inhibition (IC50) in series [1] was found to be 28 ± 3.61 µM. For the same compound, in series [2], the IC50 came out at 11.3 ± 2.79 µM.

`Cn1c(=O)c2ncn(CC(=O)Nc3cc(C(=O)N4CCOCC4)ccc3Cl)c2n(C)c1=O` [Compound 15j, N-(2-chloro-5-(morpholine-4-carbonyl)phenyl)-2–(1,3-dimethyl-2,6-dioxo-1,2,3,6-tetrahydro-9H-purin-9-yl)acetamide]: the melting point fell in the range of 262 to 264 °C. For the same compound, in series [1], the half-inhibitory concentration (IC50) came out at 26.1 ± 3.77 µM. The IC50 in series [2] was 15.2 ± 3.63 µM.

With `Cn1c(=O)c2ncn(CC(=O)Nc3cccc(C(=O)N4CCOCC4)c3F)c2n(C)c1=O` [Compound 15k, 2–(1,3-dimethyl-2,6-dioxo-1,2,3,6-tetrahydro-9H-purin-9-yl)-N-(2-fluoro-3-(morpholine-4-carbonyl)phenyl)acetamide], the melting point is 265 to 267 °C. In series [1], this compound came in with a half-inhibitory concentration (IC50) of over 30 µM. In series [2], the IC50 is over 25 µM.

Regarding `Cn1c(=O)c2ncn(CC(=O)Nc3cccc(C(=O)NC4CC4)c3)c2n(C)c1=O` [Compound 19a, N-cyclopropyl-3–(2-(1,3-dimethyl-2,6-dioxo-1,2,3,6-tetrahydro-9H-purin-9-yl)acetamido)benzamide], the melting point fell in the range of 222 to 224 °C. In series [1], this compound registered an IC50 of over 30 µM. Moreover, the IC50 in series [2] amounted to 13.8 ± 2.57 µM.

For `Cc1ccc(C(=O)NC2CC2)cc1NC(=O)Cn1cnc2c(=O)n(C)c(=O)n(C)c21` [Compound 19b, N-cyclopropyl-3–(2-(1,3-dimethyl-2,6-dioxo-1,2,3,6-tetrahydro-9H-purin-9-yl)acetamido)-4-methylbenzamide], the melting point is 218 to 219 °C. The half-maximal inhibitory concentration (IC50) in series [1] amounted to 18.7 ± 3.06 µM. Also, the half-inhibitory concentration (IC50) in series [2] worked out at 9.06 ± 1.81 µM.

`COc1ccc(C(=O)NC2CC2)cc1NC(=O)Cn1cnc2c(=O)n(C)c(=O)n(C)c21` [Compound 19c, N-cyclopropyl-3–(2-(1,3-dimethyl-2,6-dioxo-1,2,3,6-tetrahydro-9H-purin-9-yl)acetamido)-4-methoxybenzamide]: the melting point was in the range of 231 to 233 °C. Also, in series [1], half-maximal inhibition (IC50) was put at 21.9 ± 4.03 µM. The IC50 in series [2] was found to be 9.19 ± 1.9 µM.

Turning to `Cn1c(=O)c2ncn(CC(=O)Nc3cccc(C(=O)NC4CCCC4)c3)c2n(C)c1=O` [Compound 19d, N-cyclopentyl-3–(2-(1,3-dimethyl-2,6-dioxo-1,2,3,6-tetrahydro-9H-purin-9-yl)acetamido)benzamide], the melting point lay within 207 to 208 °C. The same compound showed an IC50 in series [1] of 17.9 ± 3.54 µM. In addition, the IC50 in series [2] came out at 5.13 ± 0.72 µM.

Compound `Cc1ccc(C(=O)NC2CCCC2)cc1NC(=O)Cn1cnc2c(=O)n(C)c(=O)n(C)c21` [Compound 19e, N-cyclopentyl-3–(2-(1,3-dimethyl-2,6-dioxo-1,2,3,6-tetrahydro-9H-purin-9-yl)acetamido)-4-methylbenzamide] returned a melting point of 211 to 213 °C. This compound also yielded an IC50 in series [1] of 11.3 ± 2.7 µM. Moreover, in series [2], the “increase in ATAD2 activity compared to 19d” value is recorded as “about a three-fold increase in activity” and the 50% inhibitory concentration (IC50) was determined as 1.78 ± 0.39 µM.

Consider `Cn1c(=O)c2ncn(CC(=O)Nc3cccc(C(=O)NC4CCCCC4)c3)c2n(C)c1=O` [Compound 19g, N-cyclohexyl-3–(2-(1,3-dimethyl-2,6-dioxo-1,2,3,6-tetrahydro-9H-purin-9-yl)acetamido)benzamide], for which the melting point is 195 to 197 °C. In addition, the IC50 in series [1] was 25.1 ± 4.27 µM. The concentration for half-maximal inhibition (IC50) in series [2] stood at 17.3 ± 3.92 µM.

In turn, `Cc1ccc(C(=O)NC2CCCCC2)cc1NC(=O)Cn1cnc2c(=O)n(C)c(=O)n(C)c21` [Compound 19h, N-cyclohexyl-3–(2-(1,3-dimethyl-2,6-dioxo-1,2,3,6-tetrahydro-9H-purin-9-yl)acetamido)-4-methylbenzamide] gave a melting point of 199 to 201 °C. The same compound showed a 50% inhibitory concentration (IC50) in series [1] of 11.7 ± 2.46 µM. Besides, the IC50 in series [2] was determined as 19.7 ± 4.38 µM.

Compound `COc1ccc(C(=O)NC2CCCCC2)cc1NC(=O)Cn1cnc2c(=O)n(C)c(=O)n(C)c21` [Compound 19i, N-cyclohexyl-3–(2-(1,3-dimethyl-2,6-dioxo-1,2,3,6-tetrahydro-9H-purin-9-yl)acetamido)-4-methoxybenzamide] had a melting point of 185 to 187 °C. In series [1], this compound yielded a half-inhibitory concentration (IC50) of 22 ± 3.35 µM. In addition, the half-maximal inhibitory concentration (IC50) in series [2] stood at 12.3 ± 3.06 µM.

In turn, `Cn1c(=O)c2ncn(CC(=O)Nc3cccc(C(=O)NC4CCCCCC4)c3)c2n(C)c1=O` [Compound 19j, N-cycloheptyl-3–(2-(1,3-dimethyl-2,6-dioxo-1,2,3,6-tetrahydro-9H-purin-9-yl)acetamido)benzamide] displayed a melting point of 189 to 190 °C. Besides, the IC50 in series [1] is over 30 µM. Further, the IC50 in series [2] was over 25 µM.

In the case of `Cc1ccc(C(=O)NC2CCCCCC2)cc1NC(=O)Cn1cnc2c(=O)n(C)c(=O)n(C)c21` [Compound 19k, N-cycloheptyl-3–(2-(1,3-dimethyl-2,6-dioxo-1,2,3,6-tetrahydro-9H-purin-9-yl)acetamido)-4-methylbenzamide], the melting point lay within 194 to 196 °C. Moreover, in series [1], the IC50 was over 30 µM. The IC50 in series [2] is over 25 µM.

`Cc1cc2c(cc1N)n(C)c(=O)n2C` [TS-1]: the IC50 in series [2] was found to be 411 µM.

As to `Cn1c(=O)c2[nH]cnc2n(C)c1=O` [TS-2, theophylline], in series [2], the IC50 was found to be 324 µM.
